Reference: ChEMBL document CHEMBL5360622, “Leucettinibs, a Class of DYRK/CLK Kinase Inhibitors Inspired by the Marine Sponge Natural Product Leucettamine B” (J Med Chem, 2023)

Key:
[1] = molecular target: Dual specificity protein kinase CLK2 (Homo sapiens, UniProt P49760)
[2] = molecular target: Dual specificity protein kinase CLK4 (Homo sapiens, UniProt Q9HAZ1)
[3] = molecular target: Dual specificity protein kinase CLK3 (Homo sapiens, UniProt P49761); type: cell-based, Sf9
[4] = molecular target: Glycogen synthase kinase-3 beta (Homo sapiens, UniProt P49841); type: cell-based, Sf9
[5] = molecular target: Cyclin-dependent kinase 5/CDK5 activator 1 (Homo sapiens, UniProt Q00535); type: cell-based, Sf9
[6] = molecular target: T1, Dual specificity tyrosine-phosphorylation-regulated kinase 3 (Homo sapiens, UniProt O43781)
T1 sequence (O43781 whole entry): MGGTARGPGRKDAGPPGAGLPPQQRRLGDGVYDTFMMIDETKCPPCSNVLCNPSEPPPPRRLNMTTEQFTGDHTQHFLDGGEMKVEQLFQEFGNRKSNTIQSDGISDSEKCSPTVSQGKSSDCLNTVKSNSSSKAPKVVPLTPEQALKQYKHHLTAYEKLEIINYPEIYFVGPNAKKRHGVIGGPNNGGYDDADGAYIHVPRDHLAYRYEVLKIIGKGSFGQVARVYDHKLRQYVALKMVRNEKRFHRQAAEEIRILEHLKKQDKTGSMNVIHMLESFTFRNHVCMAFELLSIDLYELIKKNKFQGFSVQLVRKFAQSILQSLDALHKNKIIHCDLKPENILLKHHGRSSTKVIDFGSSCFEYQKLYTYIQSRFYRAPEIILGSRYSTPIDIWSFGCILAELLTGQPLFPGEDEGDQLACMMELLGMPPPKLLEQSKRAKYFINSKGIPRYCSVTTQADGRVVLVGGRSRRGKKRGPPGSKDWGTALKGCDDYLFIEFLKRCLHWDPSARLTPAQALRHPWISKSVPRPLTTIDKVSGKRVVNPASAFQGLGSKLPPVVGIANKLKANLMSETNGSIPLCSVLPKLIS

[7] = molecular target: T2, Dual specificity tyrosine-phosphorylation-regulated kinase 4 (Homo sapiens, UniProt Q9NR20)
T2 sequence (Q9NR20 whole entry): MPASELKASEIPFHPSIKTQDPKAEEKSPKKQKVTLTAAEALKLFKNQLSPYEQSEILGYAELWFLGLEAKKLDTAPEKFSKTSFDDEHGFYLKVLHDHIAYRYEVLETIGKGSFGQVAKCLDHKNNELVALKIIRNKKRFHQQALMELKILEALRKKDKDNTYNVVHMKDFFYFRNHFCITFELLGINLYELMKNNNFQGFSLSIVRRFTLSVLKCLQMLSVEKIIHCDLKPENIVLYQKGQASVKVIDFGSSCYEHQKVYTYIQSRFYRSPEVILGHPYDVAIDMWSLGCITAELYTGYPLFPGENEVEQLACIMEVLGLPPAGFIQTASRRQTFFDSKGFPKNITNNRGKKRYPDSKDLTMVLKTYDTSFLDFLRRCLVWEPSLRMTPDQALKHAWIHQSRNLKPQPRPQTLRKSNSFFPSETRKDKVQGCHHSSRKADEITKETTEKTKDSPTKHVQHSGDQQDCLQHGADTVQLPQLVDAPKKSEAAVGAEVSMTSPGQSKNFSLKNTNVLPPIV

[8] = molecular target: T3, Dual specificity tyrosine-phosphorylation-regulated kinase 2 (Homo sapiens, UniProt Q92630)
T3 sequence (Q92630 whole entry): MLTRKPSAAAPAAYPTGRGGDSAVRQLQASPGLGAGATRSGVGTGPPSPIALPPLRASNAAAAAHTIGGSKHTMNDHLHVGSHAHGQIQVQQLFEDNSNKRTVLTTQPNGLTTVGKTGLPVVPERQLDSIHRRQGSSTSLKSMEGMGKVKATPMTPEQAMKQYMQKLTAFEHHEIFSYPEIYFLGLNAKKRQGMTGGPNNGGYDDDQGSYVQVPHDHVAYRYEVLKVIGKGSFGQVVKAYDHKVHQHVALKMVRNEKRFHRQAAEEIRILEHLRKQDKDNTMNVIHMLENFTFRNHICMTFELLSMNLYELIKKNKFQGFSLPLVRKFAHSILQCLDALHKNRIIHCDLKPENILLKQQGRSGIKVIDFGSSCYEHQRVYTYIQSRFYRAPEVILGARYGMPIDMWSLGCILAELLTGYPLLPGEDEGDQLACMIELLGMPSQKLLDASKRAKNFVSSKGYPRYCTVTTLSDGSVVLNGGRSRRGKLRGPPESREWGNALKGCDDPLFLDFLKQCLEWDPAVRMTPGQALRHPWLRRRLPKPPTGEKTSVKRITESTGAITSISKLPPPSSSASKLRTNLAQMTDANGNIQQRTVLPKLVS

[9] = molecular target: Casein kinase I isoform epsilon (Homo sapiens, UniProt P49674)
Sequence of Casein kinase I isoform epsilon (P49674 whole entry, canonical isoform): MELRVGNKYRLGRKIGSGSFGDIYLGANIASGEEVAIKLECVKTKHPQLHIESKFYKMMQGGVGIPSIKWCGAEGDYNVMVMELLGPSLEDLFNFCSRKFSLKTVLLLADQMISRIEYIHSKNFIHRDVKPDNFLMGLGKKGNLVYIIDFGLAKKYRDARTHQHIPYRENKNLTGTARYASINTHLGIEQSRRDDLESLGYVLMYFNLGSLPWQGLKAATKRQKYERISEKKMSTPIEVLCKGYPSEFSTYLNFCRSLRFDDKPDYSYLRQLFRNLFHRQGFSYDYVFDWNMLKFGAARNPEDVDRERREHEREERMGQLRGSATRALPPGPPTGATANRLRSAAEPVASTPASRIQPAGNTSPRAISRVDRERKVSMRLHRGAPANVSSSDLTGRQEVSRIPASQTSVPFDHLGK

Sequence of Dual specificity protein kinase CLK2 (P49760 whole entry): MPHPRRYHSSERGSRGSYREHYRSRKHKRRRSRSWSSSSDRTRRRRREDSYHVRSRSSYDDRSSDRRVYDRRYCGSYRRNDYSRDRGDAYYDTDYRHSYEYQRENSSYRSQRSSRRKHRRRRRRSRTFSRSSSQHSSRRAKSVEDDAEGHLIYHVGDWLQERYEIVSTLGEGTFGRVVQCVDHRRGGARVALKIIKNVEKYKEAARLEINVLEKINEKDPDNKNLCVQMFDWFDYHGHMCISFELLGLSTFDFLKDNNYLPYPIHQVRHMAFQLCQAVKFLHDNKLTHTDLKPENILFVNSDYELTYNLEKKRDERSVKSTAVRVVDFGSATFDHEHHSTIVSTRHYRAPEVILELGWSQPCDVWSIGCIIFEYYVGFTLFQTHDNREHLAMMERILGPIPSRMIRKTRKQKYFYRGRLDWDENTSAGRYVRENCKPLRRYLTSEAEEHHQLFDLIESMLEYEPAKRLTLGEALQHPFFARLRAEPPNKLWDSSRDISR
Sequence of Cyclin-dependent kinase 5/CDK5 activator 1 (Q00535 whole entry): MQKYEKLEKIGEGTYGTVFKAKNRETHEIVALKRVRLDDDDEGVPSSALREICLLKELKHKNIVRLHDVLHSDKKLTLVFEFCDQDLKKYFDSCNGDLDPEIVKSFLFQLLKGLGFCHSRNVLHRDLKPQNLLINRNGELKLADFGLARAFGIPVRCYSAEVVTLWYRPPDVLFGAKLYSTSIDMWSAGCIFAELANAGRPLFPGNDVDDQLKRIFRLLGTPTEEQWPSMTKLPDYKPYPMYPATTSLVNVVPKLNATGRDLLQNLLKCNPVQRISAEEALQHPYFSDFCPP
Sequence of Cyclin-dependent kinase 5/CDK5 activator 1 (Q15078 whole entry, further chain): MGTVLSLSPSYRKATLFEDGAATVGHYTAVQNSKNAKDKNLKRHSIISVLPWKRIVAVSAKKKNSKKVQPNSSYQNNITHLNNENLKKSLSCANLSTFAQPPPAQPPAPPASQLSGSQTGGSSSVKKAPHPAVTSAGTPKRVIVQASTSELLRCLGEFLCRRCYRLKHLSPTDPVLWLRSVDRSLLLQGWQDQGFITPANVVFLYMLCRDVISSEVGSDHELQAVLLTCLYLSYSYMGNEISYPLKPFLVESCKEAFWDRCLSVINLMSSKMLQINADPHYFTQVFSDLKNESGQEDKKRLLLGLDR
Sequence of Glycogen synthase kinase-3 beta (P49841 whole entry): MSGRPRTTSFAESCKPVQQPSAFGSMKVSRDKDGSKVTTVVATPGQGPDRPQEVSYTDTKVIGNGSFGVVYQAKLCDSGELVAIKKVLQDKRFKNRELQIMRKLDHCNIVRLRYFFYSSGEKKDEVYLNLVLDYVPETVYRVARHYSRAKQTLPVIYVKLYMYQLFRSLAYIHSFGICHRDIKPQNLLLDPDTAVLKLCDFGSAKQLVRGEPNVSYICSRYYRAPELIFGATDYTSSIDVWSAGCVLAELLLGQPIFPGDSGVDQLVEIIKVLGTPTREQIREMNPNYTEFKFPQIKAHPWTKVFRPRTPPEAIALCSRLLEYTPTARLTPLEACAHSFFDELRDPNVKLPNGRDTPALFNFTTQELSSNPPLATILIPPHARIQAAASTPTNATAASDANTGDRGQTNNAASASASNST
Sequence of Dual specificity protein kinase CLK3 (P49761 whole entry): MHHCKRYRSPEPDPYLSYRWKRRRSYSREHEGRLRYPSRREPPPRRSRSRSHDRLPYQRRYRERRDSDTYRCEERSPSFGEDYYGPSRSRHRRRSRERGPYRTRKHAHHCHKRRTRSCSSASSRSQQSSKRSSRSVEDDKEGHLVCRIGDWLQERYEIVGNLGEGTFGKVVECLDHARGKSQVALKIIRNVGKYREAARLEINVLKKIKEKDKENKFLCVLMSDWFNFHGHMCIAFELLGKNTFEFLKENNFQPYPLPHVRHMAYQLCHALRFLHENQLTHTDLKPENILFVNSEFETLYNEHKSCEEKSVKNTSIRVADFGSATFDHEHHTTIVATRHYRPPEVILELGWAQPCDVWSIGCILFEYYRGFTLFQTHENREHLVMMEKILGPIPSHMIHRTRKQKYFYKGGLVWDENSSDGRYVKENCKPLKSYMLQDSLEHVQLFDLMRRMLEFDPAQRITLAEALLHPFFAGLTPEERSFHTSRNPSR
Sequence of Dual specificity protein kinase CLK4 (Q9HAZ1 whole entry): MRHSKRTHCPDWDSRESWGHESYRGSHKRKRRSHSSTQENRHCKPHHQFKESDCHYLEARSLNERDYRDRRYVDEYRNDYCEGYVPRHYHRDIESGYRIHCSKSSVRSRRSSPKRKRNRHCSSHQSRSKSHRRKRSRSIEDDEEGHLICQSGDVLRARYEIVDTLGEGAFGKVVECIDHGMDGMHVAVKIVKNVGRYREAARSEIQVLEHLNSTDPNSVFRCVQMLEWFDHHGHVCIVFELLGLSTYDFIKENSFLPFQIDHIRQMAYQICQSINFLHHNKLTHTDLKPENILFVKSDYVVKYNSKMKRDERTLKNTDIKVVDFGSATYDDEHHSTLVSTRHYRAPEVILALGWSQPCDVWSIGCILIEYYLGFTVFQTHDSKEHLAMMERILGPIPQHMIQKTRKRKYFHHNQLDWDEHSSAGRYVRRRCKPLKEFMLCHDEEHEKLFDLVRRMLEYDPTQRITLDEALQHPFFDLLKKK

Row | SMILES | IC50 [1] | IC50 [2] | IC50 [3] | IC50 [4] | IC50 [5] | IC50 [6] | IC50 [7] | IC50 [8] | IC50 [9]
1 | O=C1NC(N[C@H]2CN3CCC2CC3)=N/C1=C\c1ccc2ncsc2c1 | 0.04 µM | 0.011 µM | 1.75 µM | > 10 µM | > 10 µM | 0.199 µM | – | – | –
2 | O=C1NC(N[C@@H](CO)Cc2ccccc2)=N/C1=C\c1ccc2ncsc2c1 | 0.09 µM | 0.014 µM | 0.295 µM | 2.74 µM | > 10 µM | – | 1.15 µM | 0.886 µM | > 10 µM
3 | O=C1NC(N[C@@H]2c3ccccc3C[C@H]2O)=N/C1=C\c1ccc2ncsc2c1 | – | 0.011 µM | 2.04 µM | > 10 µM | > 10 µM | – | 0.18 µM | 0.39 µM | > 10 µM
4 | O=C1NC(N[C@@H]2CN3CCC2CC3)=N/C1=C\c1ccc2ncsc2c1 | 1.17 µM | 0.169 µM | 4.35 µM | > 10 µM | > 10 µM | 0.483 µM | – | – | –
5 | O=C1NC(NCc2nc3ccccc3s2)=N/C1=C\c1ccc2ncsc2c1 | – | 0.071 µM | 7.01 µM | 9.03 µM | > 10 µM | > 10 µM | > 10 µM | > 10 µM | > 10 µM
6 | CO[C@@H]1Cc2ccccc2[C@H]1NC1=N/C(=C\c2ccc3ncsc3c2)C(=O)N1 (racemic) | 0.05 µM | 0.014 µM | 0.848 µM | 1.27 µM | > 10 µM | 0.741 µM | – | 0.235 µM | > 10 µM
7 | O=C1NC(N[C@H]2c3ccccc3C[C@@H]2O)=N/C1=C\c1ccc2ncsc2c1 | – | 0.003 µM | 0.713 µM | 0.429 µM | > 10 µM | – | 2.04 µM | 1.54 µM | > 10 µM
8 | Cc1cnc(CNC2=N/C(=C\c3ccc4ncsc4c3)C(=O)N2)cn1 | 0.303 µM | 0.032 µM | 4.14 µM | 9.03 µM | > 10 µM | – | 8.33 µM | 3.95 µM | > 10 µM
9 | CN1CCC(NC2=N/C(=C\c3ccc4ncsc4c3)C(=O)N2)C1=O (racemic) | – | 0.012 µM | 2.7 µM | > 10 µM | > 10 µM | 2.32 µM | 4.89 µM | 2.81 µM | > 10 µM
10 | CN1CCC(NC2=N/C(=C\c3ccc4ncsc4c3)C(=O)N2)CC1 | – | 0.078 µM | 3.86 µM | > 10 µM | > 10 µM | 0.647 µM | > 10 µM | 7.83 µM | > 10 µM
11 | O=C1NC(Nc2ccccc2)=N/C1=C\c1ccc2c(c1)OCO2 | – | 0.023 µM | 1.2 µM | 0.6 µM | – | – | – | – | –
12 | O=C1NC(NCCCn2ccnc2)=N/C1=C\c1ccc2ncsc2c1 | – | 0.012 µM | 1.79 µM | 6.19 µM | > 10 µM | – | – | 0.592 µM | > 10 µM
13 | CO[C@H]1Cc2ccccc2[C@H]1NC1=N/C(=C\c2ccc3ncsc3c2)C(=O)N1 (racemic) | 3.48 µM | 0.1 µM | > 10 µM | > 10 µM | > 10 µM | > 10 µM | – | 5.17 µM | > 10 µM
